Tests used:
Format in all cases: biochemical
PKR R510Q = PKR R510Q (Homo sapiens, UniProt P30613, R510Q); test: PKR R510Q Single Point Percent Activation Assay; details: compound at 1 μM; for activation at 1 µM: read-out: % Act. R510Q
Procedure: PKR R510Q Single Point Percent Activation Assay
(§1) A compound described herein was diluted with DMSO and tested at 1 μM concentration. The enzyme was diluted in 1× Buffer: (100 mM KCl, 50 mM Tris 7.5, 5 mM MgCl2, 1 mM DTT, 0.03% BSA). 2 μL of compound solution was first added into wells, and then 180 μL of enzyme solution was added. Assays were assembled except for ADP, and plates were stored for 60 minutes at RT. 20 μL ADP was added to start the assay and assay output was evaluated using OD340 at SpectraMax. The assay was run at room temperature.
PKR R510Q (40 ng/well), Tris pH 7.5 (50 mM), KCl (100 mM), MgCl2 (5 mM), ADP (0.2 mM), PEP (0.11 mM), NADH (180 μM), LDH (0.5 units, Sigma 59023), DTT (1 mM) and BSA (0.03%).

PKR R532W = PKR R532W (Homo sapiens, UniProt P30613, R532W); test: PKR R532W Single Point Percent Activation Assay; details: compound at 1 μM; for activation at 1 µM: read-out: % Act. R532W
PKR R532W, sequence (P30613 whole entry R532W): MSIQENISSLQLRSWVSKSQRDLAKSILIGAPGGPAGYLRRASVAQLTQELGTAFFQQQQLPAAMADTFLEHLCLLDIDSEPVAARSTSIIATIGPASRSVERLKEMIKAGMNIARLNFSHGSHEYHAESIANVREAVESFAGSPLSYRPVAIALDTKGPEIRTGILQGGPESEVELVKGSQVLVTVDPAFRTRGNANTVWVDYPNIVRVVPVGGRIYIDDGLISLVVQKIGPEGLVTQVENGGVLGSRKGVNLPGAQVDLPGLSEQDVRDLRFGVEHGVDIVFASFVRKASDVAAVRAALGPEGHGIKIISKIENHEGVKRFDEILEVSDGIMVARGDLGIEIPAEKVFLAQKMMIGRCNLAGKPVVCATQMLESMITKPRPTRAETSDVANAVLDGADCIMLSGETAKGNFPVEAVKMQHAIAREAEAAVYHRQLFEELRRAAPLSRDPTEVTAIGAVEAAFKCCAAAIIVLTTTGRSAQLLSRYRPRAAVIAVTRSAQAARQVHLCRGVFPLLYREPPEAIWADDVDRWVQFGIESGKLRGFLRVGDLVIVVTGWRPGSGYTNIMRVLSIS
Procedure: PKR R532W Single Point Percent Activation Assay
as §1
PKR R532W (100 ng/well), Tris pH 7.5 (50 mM), KCl (100 mM), MgCl2 (5 mM), ADP (0.36 mM), PEP (0.1 mM), NADH (180 μM), LDH (0.5 units, Sigma 59023), DTT (1 mM) and BSA (0.03%).

PKR T384W = PKR T384W (Homo sapiens, UniProt P30613); test: PKR T384W Single Point Percent Activation Assay; details: compound at 1 μM
PKR T384W, sequence (P30613 whole entry T384M): as the sequence (P30613 whole entry R532W) above, with T384M, W532R counted along it
Procedure: PKR T384W Single Point Percent Activation Assay
as §1, with “180 μL enzyme solution” for “180 μL of enzyme solution”
PKR T384W soluble (300 ng/well), Tris pH 7.5 (50 mM), KCl (100 mM), MgCl2 (5 mM), ADP (0.08 mM), PEP (0.23 mM), NADH (180 μM), LDH (0.5 units, Sigma 59023), DTT (1 mM) and BSA (0.03%).

PKR wt = PKR wt (Homo sapiens, UniProt P30613); test: PKR WT Single Point Percent Activation Assay; details: compound at 1 μM
PKR wt, sequence (P30613 whole entry): as the sequence (P30613 whole entry R532W) above, with W532R counted along it
Procedure: PKR WT Single Point Percent Activation Assay
as §1
PKR wt (100 ng/well), Tris pH 7.5 (50 mM), KCl (100 mM), MgCl2 (5 mM), ADP (0.48 mM), PEP (0.15 mM), NADH (180 μM), LDH (0.5 units, Sigma 59023), DTT (1 mM) and BSA (0.03%).

wild type PKR = wild type PKR (Homo sapiens, UniProt P30613); test: PKR assay, AC50 (wild type); details: read-out: PKR WT AC50
wild type PKR, sequence (P30613 whole entry): as the sequence (P30613 whole entry R532W) above, with W532R counted along it
Procedure: • PKR or PKR mutant enzyme solution was diluted in assay buffer. • 2 μL of test compound was added into wells first, and then 180 μL reaction mix was added. • Reactions mixture with test compound was assembled except for ADP, and plates were stored for 60 minutes at room temperature. • 20 uL ADP was added to start reaction at room temperature and reaction progress was measured as changes in absorbance at 340 nm wavelength at room temperature.
Test Compound Preparation: • Test compound stock was made at 100× concentration in 100% DMSO (10 mM) • 1 to 3 dilutions were made for 11 points (i.e. 50 μl of first concentration added to 100 μl 100% DMSO to yield 3.33 mM, 50 μl of this added to 100 μl DMSO to yield 1.11 mM, and so forth) • 1 to 100 dilution into assay (2 μl in 200 μl) yielded starting concentration of 100 μM, decreasing 3 fold for 11 points.

PKR R510Q, sequence (P30613 whole entry R510Q): as the sequence (P30613 whole entry R532W) above, with R510Q, W532R counted along it

SMILES | activation at 1 µM (PKR R510Q) [%] | activation at 1 µM (PKR R532W) [%] | activation at 1 µM (PKR wt) [%] | AC50 (wild type PKR) [nM] | % Act. T384W (PKR T384W) | % Act. R532W (PKR R532W) | % Act. R510Q (PKR R510Q) | Act. % WT (PKR wt)
O=C(c1ccc(NS(=O)(=O)c2cccc3cccnc23)cc1)N1CC(O)(Cc2ccccc2)C1 [drawing 5] | 101 to 500 | 101 to 500 | 101 to 500 | < 100 | B (a % activation at 1 μM of from 101 to 500) |  |  | 
Cc1cc(C(=O)N2CC(Oc3ccccc3)C2)ccc1NS(=O)(=O)c1cccc2cccnc12 [drawing 10] | 101 to 500 | 1 to 100 | 1 to 100 | < 100 | A (a % activation at 1 μM of from 1 to 100) |  |  | 
O=C(c1ccc(NS(=O)(=O)c2cccc3cccnc23)cc1)N1CC(OCc2ccccc2)C1 [drawing 12] | 101 to 500 | 101 to 500 | 101 to 500 | 101 to 500 | B (a % activation at 1 μM of from 101 to 500) |  |  | 
O=C(NC1CN(C(=O)c2ccc(NS(=O)(=O)c3cccc4cccnc34)cc2)C1)c1ccccn1 [drawing 15] |  |  |  | > 500 | B (a % activation at 1 μM of from 101 to 500) | B (a % activation at 1 μM of from 101 to 500) | B (a % activation at 1 μM of from 101 to 500) | B (a % activation at 1 μM of from 101 to 500)
COc1ccccc1N(C)C1CN(C(=O)c2ccc(NS(=O)(=O)c3cccc4cccnc34)cc2)C1 [drawing 21] | 101 to 500 |  | 101 to 500 |  | A (a % activation at 1 μM of from 1 to 100) | B (a % activation at 1 μM of from 101 to 500) |  | 
COc1ccccc1N(C)C1CN(C(=O)c2ccc(NS(=O)(=O)c3cccc4cccnc34)cc2)C1 [drawing 32] |  |  |  |  | B (a % activation at 1 μM of from 101 to 500) | A (a % activation at 1 μM of from 1 to 100) | B (a % activation at 1 μM of from 101 to 500) | B (a % activation at 1 μM of from 101 to 500)

Further lines, with some results ahead:

activation at 1 µM (PKR R510Q) [%] | activation at 1 µM (PKR R532W) [%] | activation at 1 µM (PKR wt) [%] | AC50 (wild type PKR) [nM] | SMILES | % Act. T384W (PKR T384W) | % Act. R532W (PKR R532W) | % Act. R510Q (PKR R510Q) | Act. % WT (PKR wt)
101 to 500 | 101 to 500 | 101 to 500 |  | Cc1cc(C(=O)N2CC(C)(O)C2)ccc1NS(=O)(=O)c1cccc2cccnc12 | B (a % activation at 1 μM of from 101 to 500) |  |  | 
101 to 500 | 101 to 500 | 101 to 500 |  | Cc1cc(C(=O)N2CC(Nc3ccccc3)C2)ccc1NS(=O)(=O)c1cccc2cccnc12 | B (a % activation at 1 μM of from 101 to 500) |  |  | 
101 to 500 | 101 to 500 | 101 to 500 |  | CN(Cc1ccccc1)C1CN(C(=O)c2ccc(NS(=O)(=O)c3cccc4cccnc34)cc2)C1 | B (a % activation at 1 μM of from 101 to 500) |  |  | 
101 to 500 | 101 to 500 | 101 to 500 | 101 to 500 | O=C(c1ccc(NS(=O)(=O)c2cccc3cccnc23)cc1)N1CC(Oc2ccccc2)C1 [drawing 4] | B (a % activation at 1 μM of from 101 to 500) |  |  | 
101 to 500 | 1 to 100 | 101 to 500 | 101 to 500 | Cc1cc(C(=O)N2CC(NC(=O)c3ccccn3)C2)ccc1NS(=O)(=O)c1cccc2cccnc12 [drawing 7] | B (a % activation at 1 μM of from 101 to 500) |  |  | 
101 to 500 |  | 101 to 500 |  | O=C(NC1CN(C(=O)c2ccc(NS(=O)(=O)c3cccc4cccnc34)cc2)C1)c1ccccn1 [drawing 8] | B (a % activation at 1 μM of from 101 to 500) | A (a % activation at 1 μM of from 1 to 100) |  | 
101 to 500 | 101 to 500 | 101 to 500 | > 500 | O=C(c1ccc(NS(=O)(=O)c2cccc3cccnc23)c(F)c1)N1CC(Nc2ccccc2)C1 [drawing 22] | B (a % activation at 1 μM of from 101 to 500) |  |  | 
